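Exposure lasted 48 hours, with cells grown in 96-well plates and compounds tested at five concentrations. GI50 marks 50% less growth.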 Active and inactive are the calls of the source. Cut-off read from the data, not from the text of the source: active = GI50 up to about 1.1 µM and inactive = higher.
Legend:
Assay in all cases: inhibition of tumour cell growth, NCI panel, 48 h
UACC-257 = system: UACC-257
DU-145 = system: DU-145
SK-MEL-2 = system: SK-MEL-2
T47D = system: T47D
RXF 393 = system: RXF 393
NCI-H23 = system: NCI-H23
KM12 = system: KM12
UO-31 = system: UO-31
UACC-62 = system: UACC-62
EKVX = system: EKVX
CCRF-CEM = system: CCRF-CEM
NCI-H522 = system: NCI-H522
SW-620 = system: SW-620
SNB-19 = system: SNB-19
Malme-3M = system: Malme-3M
HCC 2998 = system: HCC 2998
MDA-MB-435 = system: MDA-MB-435
PC-3 = system: PC-3
HT-29 = system: HT-29
NCI/ADR-RES = system: NCI/ADR-RES

Measured: GI50

COc1ccc(CNC(=O)[C@H](Cc2ccc(O)cn2)NC(C)=O)cc1OC
inactive: UACC-257 > 100 µM | DU-145 > 100 µM | SK-MEL-2 > 100 µM | T47D > 100 µM | RXF 393 > 100 µM | NCI-H23 > 100 µM | KM12 > 100 µM | UO-31 > 100 µM | UACC-62 > 100 µM | EKVX > 100 µM | CCRF-CEM > 100 µM | NCI-H522 > 93.5 µM | SW-620 > 100 µM | SNB-19 > 100 µM | Malme-3M > 100 µM | HCC 2998 > 100 µM | MDA-MB-435 > 100 µM | PC-3 > 100 µM | HT-29 > 100 µM | NCI/ADR-RES > 100 µM

CC1(C)O[C@@H](CO)[C@H]([C@@]23OC[C@H]4OC(C)(C)OC4[C@@H]2OC(C)(C)O3)O1 (some centres not stated)
inactive: DU-145 > 100 µM | SK-MEL-2 > 100 µM | T47D > 100 µM | RXF 393 > 100 µM | NCI-H23 > 100 µM | KM12 > 100 µM | UO-31 > 100 µM | EKVX > 100 µM | NCI-H522 > 100 µM | SW-620 > 100 µM | SNB-19 > 100 µM | Malme-3M > 100 µM | HCC 2998 > 100 µM | MDA-MB-435 > 100 µM | PC-3 > 100 µM | HT-29 > 100 µM | NCI/ADR-RES > 100 µM

NCCCN(CCCN)CCc1cn(C(=O)c2ccccc2)cn1
inactive: UACC-257 9.2 µM | DU-145 4.32 µM | SK-MEL-2 9.1 µM | T47D 4.85 µM | RXF 393 2.97 µM | NCI-H23 13.2 µM | KM12 7.82 µM | UACC-62 8.57 µM | EKVX 7.21 µM | CCRF-CEM 2.17 µM | NCI-H522 10 µM | SW-620 10.2 µM | SNB-19 15.1 µM | Malme-3M 14.7 µM | HCC 2998 4.52 µM | MDA-MB-435 5.73 µM | PC-3 8.63 µM | HT-29 11.9 µM | NCI/ADR-RES 14.4 µM

Cc1ccc(/N=N/C(=N/NC(=O)c2cc(Cl)ccc2O)c2ccc(N(CCC#N)CCC#N)cc2C)cc1
inactive: UACC-257 13.2 µM | DU-145 26.9 µM | SK-MEL-2 15.7 µM | T47D 7.29 µM | RXF 393 18.2 µM | NCI-H23 18.6 µM | KM12 18.1 µM | UO-31 24.8 µM | UACC-62 22.7 µM | EKVX 21.5 µM | CCRF-CEM 26 µM | NCI-H522 8.95 µM | SNB-19 25.5 µM | Malme-3M 20.6 µM | HCC 2998 24.1 µM | MDA-MB-435 34 µM | PC-3 24.3 µM | HT-29 14.6 µM | NCI/ADR-RES 38.4 µM

OC1c2ccccc2CC12Cc1ccccc1C2 (configuration not stated)
inactive: UACC-257 44.9 µM | DU-145 > 100 µM | SK-MEL-2 > 100 µM | T47D > 100 µM | RXF 393 48.3 µM | NCI-H23 > 100 µM | KM12 > 100 µM | UO-31 94.2 µM | EKVX > 100 µM | CCRF-CEM > 100 µM | NCI-H522 62.5 µM | SW-620 > 100 µM | SNB-19 > 100 µM | Malme-3M 92.9 µM | HCC 2998 > 100 µM | MDA-MB-435 > 100 µM | PC-3 > 100 µM | HT-29 86.7 µM | NCI/ADR-RES 54.7 µM

Cc1ccc(NC2=NCCO2)c2c1CCC2
inactive: DU-145 63.2 µM | SK-MEL-2 20 µM | T47D 51.3 µM | RXF 393 26.8 µM | NCI-H23 32.2 µM | KM12 30.3 µM | UO-31 > 100 µM | UACC-62 30.7 µM | EKVX 48.4 µM | CCRF-CEM 37.2 µM | NCI-H522 45.8 µM | SW-620 46.9 µM | SNB-19 58.9 µM | Malme-3M 27.8 µM | HCC 2998 32 µM | MDA-MB-435 20.5 µM | PC-3 25.4 µM | HT-29 33.3 µM | NCI/ADR-RES 20.4 µM

Cc1cccc(C2ON=C(c3ccccc3)N2C23CC4CC(CC(C4)C2)C3)c1 (configuration not stated)
inactive: UACC-257 > 10 µM | DU-145 > 10 µM | SK-MEL-2 > 10 µM | T47D > 10 µM | RXF 393 > 10 µM | NCI-H23 > 10 µM | KM12 > 10 µM | UACC-62 > 10 µM | EKVX > 10 µM | CCRF-CEM > 10 µM | NCI-H522 > 10 µM | SW-620 > 10 µM | SNB-19 > 10 µM | Malme-3M > 10 µM | HCC 2998 > 10 µM | MDA-MB-435 > 10 µM | PC-3 > 10 µM | HT-29 > 10 µM | NCI/ADR-RES > 10 µM
